Values joined by “and” are separate entries in the source; they are usually repeats but may differ in a detail not shown here. Equal entries are not always repeated. Numbers after ± are expanded uncertainties.
Test: cn = amount concentration of the nth substance listed, in mol/dm3
Conditions: 101 kPa, Liquid, c1 = 2

Row | Structure (SMILES) | mass density (298.15 K) [kg/m3] | speed of sound (298.15 K) [m/s] | mass density (303.15 K) [kg/m3] | speed of sound (303.15 K) [m/s] | mass density (308.15 K) [kg/m3] | speed of sound (308.15 K) | mass density (313.15 K) [kg/m3] | speed of sound (313.15 K) [m/s] | mass density (318.15 K) [kg/m3] | speed of sound (318.15 K) | mass density (323.15 K) [kg/m3] | speed of sound (323.15 K)
1 | [Cl-].[K+] [potassium chloride] + O | 1089.1 ± 1.7 | 1595.2 ± 3.3 | 1087.5 ± 1.8 | 1605.9 ± 3.3 | 1085.6 ± 1.9 | 1610.2 ± 3.3 m/s | 1083.4 ± 1.9 | 1616.4 ± 3.4 | 1080.9 ± 2 | 1621.4 ± 3.4 m/s | 1078.3 ± 2.1 | 1626.5 ± 3.4 m/s
2 | O=[N+]([O-])[O-].[K+] [potassium nitrate] + O | 1122.9 ± 1.8 | 1562 ± 3.3 | 1120.6 ± 1.9 | 1569.4 ± 3.3 | 1118 ± 1.9 | 1575.8 ± 3.3 m/s and 1575 ± 3.3 m/s | 1115 ± 2 | 1580 ± 3.3 | 1111.8 ± 2.1 | 1584.6 ± 3.3 m/s and 1584.5 ± 3.3 m/s | 1108.2 ± 2.1 | 1588.9 ± 3.3 m/s and 1588.8 ± 3.3 m/s

From the NIST ThermoML archive (doi:10.1007/s10765-008-0514-x)
